Laboratory results: patent publication US10294202B2, “Pyrrolidinones as herbicides” (FMC Corporation, priority 2013, dated 2019)

How the values were obtained:
barnyardgrass [1] = test: Test A pre-/postemergence herbicide test; assay type: in vivo, Echinochloa crus-galli; settings: for Plant response rating, Barnyardgrass: 0 to 100 scale
Outline: (§1)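 Greenhouse pot test with pre- and postemergence application of surfactant-containing solvent formulations. Postemergence plants were 2–10 cm, one- to two-leaf stage. Response scored visually after ~10 days, 0 (no effect) to 100 (complete control).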

giant foxtail = test: Test A pre-/postemergence herbicide test; assay type: in vivo, Setaria faberii; settings: for Plant response rating, Foxtail, Giant: 0 to 100 scale
Outline: as §1

pigweed = test: Test A pre-/postemergence herbicide test; assay type: in vivo, Amaranthus retroflexus; settings: for Plant response rating, Pigweed: 0 to 100 scale
Outline: as §1

galium = test: Test C pre-/postemergence herbicide test; assay type: in vivo, Galium aparine
Outline: (§2)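 Greenhouse pots; formulation = non-phytotoxic solvent mix + surfactant. PRE onto seeds in loam:sand; POST at 1–4 leaves (2–18 cm) in peat moss/vermiculite medium. Read-out: visual % control vs untreated, day 13–15.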

crabgrass, large = test: Test C pre-/postemergence herbicide test; assay type: in vivo, Digitaria sanguinalis
Outline: as §2

foxtail, giant = test: Test C pre-/postemergence herbicide test; assay type: in vivo, Setaria faberii
Outline: as §2

lambsquarters = test: Test C pre-/postemergence herbicide test; assay type: in vivo, Chenopodium album
Outline: as §2

morningglory = test: Test C pre-/postemergence herbicide test; assay type: in vivo, Ipomoea coccinea
Outline: as §2

barnyardgrass [2] = test: Test C pre-/postemergence herbicide test; assay type: in vivo, Echinochloa crus-galli
Outline: as §2

waterhemp = test: Test C pre-/postemergence herbicide test; assay type: in vivo, Amaranthus rudis
Outline: as §2

oat, wild = test: Test C pre-/postemergence herbicide test; assay type: in vivo, Avena fatua; settings: Postemergence
Outline: as §2

velvetleaf = test: Test C pre-/postemergence herbicide test; assay type: in vivo, Abutilon theophrasti
Outline: as §2

[3] = 125 g ai/ha, visual rating, 0 no effect, 100 complete control, approximately 10 days, preemergence
[4] = Postemergence, 125 g ai/ha, 0 is no effect, 100 is complete control
[5] = preemergence, 500 g ai/ha, 0 is no effect and 100 is complete control
[6] = Postemergence, 31 g ai/ha, scale 0 to 100 (0 no effect, 100 complete control)
[7] = Postemergence, 62 g ai/ha, scale 0 (no effect) to 100 (complete control)
[8] = Postemergence, 125 g ai/ha, scale 0 to 100 (0 no effect, 100 complete control)
[9] = Postemergence, 250 g ai/ha, scale 0 to 100 (0 no effect, 100 complete control)
[10] = Preemergence, 31 g ai/ha, scale 0 to 100, 0 is no effect and 100 is complete control
[11] = Preemergence, 62 g ai/ha, scale 0 to 100 (0 no effect, 100 complete control)
[12] = Preemergence, 125 g ai/ha, scale 0 to 100 (0 no effect, 100 complete control)

SMILES: O=C1NCC(c2cccc(OC(F)F)c2)C1C(=O)Nc1ccccc1F (centres unmarked) [Compound 223]
- Plant response rating, Barnyardgrass (barnyardgrass [1]; [3]): 90
- Plant response rating, Barnyardgrass (barnyardgrass [1]; [4]): 80
- Barnyardgrass plant response rating (0 to 100 scale, 0 is no effect, 100 is complete control) (barnyardgrass [1]; Postemergence, 500 g ai/ha): 80
- Plant response rating, Barnyardgrass (barnyardgrass [1]; [5]): 90
- Plant response rating, Foxtail, Giant (giant foxtail; [3]): 90
- Plant response rating, Foxtail, Giant (giant foxtail; [4]): 80
- Foxtail, Giant plant response rating (0 to 100 scale, 0 is no effect, 100 is complete control) (giant foxtail; Postemergence, 500 g ai/ha): 90
- Plant response rating, Foxtail, Giant (giant foxtail; [5]): 90
- Plant response rating, Pigweed (pigweed; [3]): 20
- Plant response rating, Pigweed (pigweed; [4]): 40
- Pigweed plant response rating (0 to 100 scale, 0 is no effect, 100 is complete control) (pigweed; Postemergence, 500 g ai/ha): 60
- Plant response rating, Pigweed (pigweed; [5]): 50
- Plant response rating, Galium (galium; [6]): 5
- Plant response rating, Galium (galium; [7]): 5
- Plant response rating, Galium (galium; [8]): 45
- Plant response rating, Galium (galium; [9]): 70
- Galium plant response rating (galium; [10]): 0
- Galium plant response rating (galium; [11]): 0
- Plant response rating, Galium (galium; [12]): 90
- Plant response rating (scale of 0 to 100), Galium (galium; Preemergence, 250 g ai/ha): 90
- Plant response rating, Crabgrass, Large (crabgrass, large; [6]): 0
- Plant response rating, Crabgrass, Large (crabgrass, large; [7]): 10
- Plant response rating, Crabgrass, Large (crabgrass, large; [8]): 55
- Plant response rating, Crabgrass, Large (crabgrass, large; [9]): 80
- Crabgrass, Large plant response rating (crabgrass, large; [10]): 85
- Crabgrass, Large plant response rating (crabgrass, large; [11]): 90
- Plant response rating, Crabgrass, Large (crabgrass, large; [12]): 95
- Plant response rating (scale of 0 to 100), Crabgrass, Large (crabgrass, large; Preemergence, 250 g ai/ha): 100
- Plant response rating, Foxtail, Giant (foxtail, giant; [6]): 0
- Plant response rating, Foxtail, Giant (foxtail, giant; [7]): 35
- Plant response rating, Foxtail, Giant (foxtail, giant; [8]): 30
- Plant response rating, Foxtail, Giant (foxtail, giant; [9]): 35
- Foxtail, Giant plant response rating (foxtail, giant; [10]): 70
- Foxtail, Giant plant response rating (foxtail, giant; [11]): 85
- Plant response rating, Foxtail, Giant (foxtail, giant; [12]): 90
- Plant response rating (scale of 0 to 100), Foxtail, Giant (foxtail, giant; Preemergence, 250 g ai/ha): 98
- Plant response rating, Lambsquarters (lambsquarters; [6]): 0
- Plant response rating, Lambsquarters (lambsquarters; [7]): 5
- Plant response rating, Lambsquarters (lambsquarters; [8]): 35
- Plant response rating, Lambsquarters (lambsquarters; [9]): 60
- Lambsquarters plant response rating (lambsquarters; [10]): 70
- Lambsquarters plant response rating (lambsquarters; [11]): 70
- Plant response rating, Lambsquarters (lambsquarters; [12]): 85
- Plant response rating (scale of 0 to 100), Lambsquarters (lambsquarters; Preemergence, 250 g ai/ha): 90
- Plant response rating, Morningglory (morningglory; [6]): 0
- Plant response rating, Morningglory (morningglory; [7]): 0
- Plant response rating, Morningglory (morningglory; [8]): 0
- Plant response rating, Morningglory (morningglory; [9]): 35
- Morningglory plant response rating (morningglory; [10]): 0
- Morningglory plant response rating (morningglory; [11]): 0
- Plant response rating, Morningglory (morningglory; [12]): 10
- Plant response rating (scale of 0 to 100), Morningglory (morningglory; Preemergence, 250 g ai/ha): 20
- Plant response rating, Barnyardgrass (barnyardgrass [2]; [6]): 0
- Plant response rating, Barnyardgrass (barnyardgrass [2]; [7]): 0
- Plant response rating, Barnyardgrass (barnyardgrass [2]; [8]): 45
- Plant response rating, Barnyardgrass (barnyardgrass [2]; [9]): 60
- Barnyardgrass plant response rating (barnyardgrass [2]; [10]): 65
- Plant response rating, Barnyardgrass (barnyardgrass [2]; Preemergence, 62 g ai/ha, scale 0 to 100): 85
- Plant response rating, Barnyardgrass (barnyardgrass [2]; [12]): 90
- Plant response rating (scale of 0 to 100; 0 is no effect, 100 is complete control), Barnyardgrass (barnyardgrass [2]; Preemergence, 250 g ai/ha): 95
- Plant response rating, Waterhemp (waterhemp; [6]): 0
- Plant response rating, Waterhemp (waterhemp; [7]): 0
- Plant response rating, Waterhemp (waterhemp; [8]): 10
- Plant response rating, Waterhemp (waterhemp; [9]): 10
- Waterhemp plant response rating (waterhemp; [10]): 90
- Waterhemp plant response rating (waterhemp; [11]): 0
- Plant response rating, Waterhemp (waterhemp; [12]): 0
- Plant response rating (scale of 0 to 100), Waterhemp (waterhemp; Preemergence, 250 g ai/ha): 25
- Plant response rating, Oat, Wild (oat, wild; 31 g ai/ha, scale 0 to 100 (0 no effect, 100 complete control)): 0
- Plant response rating, Oat, Wild (oat, wild; 62 g ai/ha, scale 0 (no effect) to 100 (complete control)): 0
- Plant response rating, Oat, Wild (oat, wild; 125 g ai/ha, scale 0 to 100 (0 no effect, 100 complete control)): 0
- Plant response rating, Oat, Wild (oat, wild; 250 g ai/ha, scale 0 to 100 (0 no effect, 100 complete control)): 0
- Plant response rating, Velvetleaf (velvetleaf; [6]): 0
- Plant response rating, Velvetleaf (velvetleaf; [7]): 0
- Plant response rating, Velvetleaf (velvetleaf; [8]): 0
- Plant response rating, Velvetleaf (velvetleaf; [9]): 20
- Velvetleaf plant response rating (velvetleaf; [10]): 0
- Velvetleaf plant response rating (velvetleaf; [11]): 0
- Plant response rating, Velvetleaf (velvetleaf; [12]): 25
- Plant response rating (scale of 0 to 100), Velvetleaf (velvetleaf; Preemergence, 250 g ai/ha): 35
